Series [1] in a line: Hepatic extraction, rat hepatocytes. Type of series: in vitro ADME. From the text: (§1) Based upon this correlation, the rat was used to predict human absorption. […] Thus, oral bioavailability assessments in rats should correlate well with the fraction absorbed in humans.
Series [2] can be described thus: Hepatic extraction, human hepatocytes. Type of series: in vitro ADME.
From the text: as §1

For series [3] the following is noted: administered orally, rodents, preclinical studies; cited from earlier work.
A short description of series [4]: in vitro. On the procedure: (§2) The incubation consisted of 990 μl of plasma preincubated for 5 minutes at 37° C. in a 96-well heat block. The incubation was initiated with the addition of 10 gl of a 10 mM stock of compound in 100% methanol. Serial aliquots (100 μl) were removed and transferred to 200 μl of 75/25 acetonitrile/3% perchloric acid at 0, 1, 2, 5, 10, 20, 30, and 60 minutes. The samples were centrifuged, the supernatants transferred to injection vials, and 20 μl was injected onto the HPLC in-line with a LC/MS single quadropole mass spectrometer. The LC/MS system was run in the negative ion mode.

Series [5] can be described thus: in vitro. The protocol:
as §2
This is another data set of the same source.

The nature of series [6]: in vitro. The protocol:
as §2
The source holds these as a separate data set.

The nature of series [7]: in vitro. The protocol: as §2
This is another data set of the same source.

Series [8] can be described thus: in vitro. On the procedure: as §2
This is another data set of the same source.

The target in series [9] is T1, BRO-2 β-lactamase, M. catarrhalis 87A1178 ATCC43617 (Moraxella catarrhalis, UniProt Q59514).
T1 sequence (Q59514 1-313 D293G): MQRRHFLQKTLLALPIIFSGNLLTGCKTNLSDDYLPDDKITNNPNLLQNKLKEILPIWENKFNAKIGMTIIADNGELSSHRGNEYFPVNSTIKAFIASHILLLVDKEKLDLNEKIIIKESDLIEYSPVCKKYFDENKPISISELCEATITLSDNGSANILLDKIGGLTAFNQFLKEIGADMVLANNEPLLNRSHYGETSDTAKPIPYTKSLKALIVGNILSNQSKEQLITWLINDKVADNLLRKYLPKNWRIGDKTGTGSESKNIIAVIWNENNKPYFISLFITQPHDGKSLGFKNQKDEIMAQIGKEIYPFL
Nature of the series: IC50 against β-lactamase in cell extract (colorimetric, chromogenic cephalosporin). Type of series: biochemical. The note with it: BRO-2, M. catarrhalis 87A1178 ATCC43617 cell extract.

Series [10] has as its target T2, ROB-1 β-lactamase, H. influenzae ATCC43334 (Haemophilus influenzae, UniProt P67918).
T2 sequence (P67918 34-305): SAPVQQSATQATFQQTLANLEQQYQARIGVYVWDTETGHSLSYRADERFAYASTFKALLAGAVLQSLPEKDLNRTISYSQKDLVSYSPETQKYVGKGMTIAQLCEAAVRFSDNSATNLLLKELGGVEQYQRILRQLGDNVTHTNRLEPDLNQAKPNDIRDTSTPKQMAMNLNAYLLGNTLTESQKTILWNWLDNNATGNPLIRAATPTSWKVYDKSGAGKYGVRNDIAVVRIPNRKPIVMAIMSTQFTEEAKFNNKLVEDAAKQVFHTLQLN
Nature of the series: biochemical.

In series [11] the target is T3, BRO-1 β-lactamase, M. catarrhalis 87A1115 (Moraxella catarrhalis, UniProt Q59514).
T3 sequence (Q59514 26-313): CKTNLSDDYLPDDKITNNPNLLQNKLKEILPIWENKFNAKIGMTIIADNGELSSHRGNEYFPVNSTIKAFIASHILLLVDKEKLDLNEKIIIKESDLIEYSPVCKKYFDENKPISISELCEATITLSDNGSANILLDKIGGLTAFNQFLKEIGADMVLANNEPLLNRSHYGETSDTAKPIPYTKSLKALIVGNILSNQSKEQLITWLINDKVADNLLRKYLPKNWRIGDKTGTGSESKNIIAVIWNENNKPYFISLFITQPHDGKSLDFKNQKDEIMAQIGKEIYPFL
Nature of the series: biochemical.

The target in series [12] is T4, Sme-I β-lactamase, Serratia S6 (Serratia marcescens, UniProt P52682).
T4 sequence (P52682 28-294): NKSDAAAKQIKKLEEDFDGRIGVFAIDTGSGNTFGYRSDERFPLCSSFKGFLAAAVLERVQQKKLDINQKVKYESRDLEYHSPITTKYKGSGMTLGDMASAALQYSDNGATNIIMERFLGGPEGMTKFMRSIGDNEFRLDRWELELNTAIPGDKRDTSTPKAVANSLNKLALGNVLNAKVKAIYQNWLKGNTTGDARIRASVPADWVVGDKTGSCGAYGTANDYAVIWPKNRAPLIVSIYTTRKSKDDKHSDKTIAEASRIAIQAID
Briefly: biochemical.
From the text: Biochemical activity against β-lactamases from other pathogens, including those associated with skin infections:

In series [13] the test system is Moraxella catarrhalis (87A1115). Briefly: Murine systemic infection model. Type of series: in vivo. The note with it: single agent, oral, b.i.d. for 1 day, mice, survival day 4 post-challenge.
In series [14] the test system is Staphylococcus aureus (01A0400). Briefly: Murine systemic infection model. The note with it: single agent, oral, b.i.d. for 1 day, mice, survival day 4 post-challenge. Type of series: in vivo.
Series [15] concerns Streptococcus pneumoniae (02J1095). Briefly: Murine systemic infection model. The note with it: single agent, oral, b.i.d. for 1 day, mice, survival day 4 post-challenge. Type of series: in vivo.
Series [16] shares this test system. Nature of the series: Murine pneumonia model. Type of series: in vivo. The note with it: single agent, oral, b.i.d. for 2 days, mice, survival day 10 post-challenge.
In series [17] the test system is esterases. Briefly: Hydrolysis in the presence of esterases. Type of series: in vitro ADME.
From the text: as §1

The test system of series [18] is Streptococcus pneumoniae (02J1046). Nature of the series: Gerbil otitis media model. Type of series: in vivo. The note with it: single agent, oral, t.i.d. for 2 days, bacterial clearance day 4 post-challenge.
Series [19] relates to Haemophilus influenzae (54A1218). Nature of the series: Gerbil otitis media model. Type of series: in vivo. The note with it: single agent, oral, t.i.d. for 2 days, bacterial clearance day 4 post-challenge.
Series [20] has as its system clinical isolates of S. pneumoniae. Nature of the series: Susceptibility assay (NCCLS broth microdilution MIC), non-β-lactamase producing species. The note with it: Streptococcus pneumoniae. For orientation: Dilution methods test growth across graded concentrations, often in twofold steps.

In brackets after ≈: the same amount, converted by molar mass. Read-outs that look alike come from different tables or passages of the source.

`CC1(C)C(C(=O)O)N2C(=O)C(CO)C2S1(=O)=O` (stereo not drawn) [Prodrug 6-β-HMPAS, 6-β-hydroxymethylpenicillanic acid sulfone]: the hepatic extraction entry in [1] and in [2] was “minimal” each time. Also, the oral absorption entry in series [3] is recorded as “very poorly absorbed”.
For `O=C(O)[C@H]1/C(=C/CO)O[C@@H]2CC(=O)N21` [Clavulanate, lithium clavulanate], the half-life (commonly the time needed for the level to fall by half in the phase considered) at 100 μM is more than 4 h in series [4] (mouse, plasma); 3.3 h in series [5] (rat, plasma); 2.8 h in [6] (dog, plasma); 3.6 h in series [7] (monkey, plasma); 2.6 h in series [8] (human, plasma). Further, the IC50 (in general, the concentration that inhibits the measured activity by half) in series [9] worked out at 110 nM; in series [10], 40 nM; in series [11], 140 nM; in series [12], 19600 nM.
Take `CC1(C)[C@H](C(=O)OCOC(=O)OC2CCOCC2)N2C(=O)[C@@H](CO)[C@H]2S1(=O)=O` [Prodrug 1, 4-Thia-1-azabicyclo[3.2.0]heptane-2-carboxylic acid, 6-(hydroxymethyl)-3,3-dimethyl-7-oxo-,[[[(tetrahydro-2H-pyran-4-yl)oxy]carbonyl]oxy]methyl ester, 4,4-dioxide (2S,5R,6R)]: the melting point (as a rule, the temperature of the solid-liquid transition) amounted to 136 °C. In addition, in [4] (mouse, plasma), the half-life at 100 μM was less than 0.0333 h. In [5] (rat, plasma), this compound yielded a half-life at 100 μM of less than 0.0333 h. In series [6] (dog, plasma), this compound registered a half-life at 100 μM of 0.167 h. The compound further returned a half-life at 100 μM in series [8] (human, plasma) of 0.112 h. Also, the ED50 (commonly the dose at which the effect has come halfway, by size or by number of responders) in [13] is more than 25 mg/kg. The ED50 in series [14] is more than 25 mg/kg. The compound also came in with an ED50 in series [15] of more than 25 mg/kg. In series [16], the ED50 is more than 25 mg/kg. Also, in [17], the time to hydrolysis result is “within a few minutes”.
With `CC1(C)[C@H](C(=O)[O-])N2C(=O)[C@@H](CO)[C@H]2S1(=O)=O.[Na+]` [Na-HMPAS, 4-Thia-1-azabicyclo [3,2,0]heptane-2-carboxylic acid, 6-(hydroxymethyl)-3,3-dimethyl-7-oxo-,4,4-dioxide, monosodium salt, (2S,5R,6R)], the half-life at 100 μM in series [4] was 3.9 h; in [5], 3.4 h; in [6], more than 4 h; in [7], more than 4 h; in series [8], more than 4 h. For the same compound, the IC50 in series [9] was 320 nM; in series [10], 10 nM; in series [11], 143 nM; in [12], 680 nM.
In the case of `CC1(C)S[C@@H]2[C@H](NC(=O)[C@H](N)c3ccc(O)cc3)C(=O)N2[C@H]1C(=O)O` [Amoxicillin, amoxicillin], the ED50 in series [18] was more than 50 mg/kg; in series [19] it was more than 50 mg/kg; in series [13] it was more than 200 mg/kg; in series [14] it was more than 200 mg/kg; in [15], less than 100 mg/kg; in series [16], less than 100 mg/kg. Also, the MIC is 0.0156 to 0.06 µg/mL (≈ 0.0427 to 0.164 µM) in series [20] (read-out: Amoxicillin MICs, 12 penicillin-susceptible S. pneumoniae isolates) and 0.03 to 1 µg/mL (≈ 0.0821 to 2.74 µM) in [20] (read-out: Amoxicillin MICs, 21 penicillin-intermediate S. pneumoniae). The MIC50 (as a rule, the lowest concentration that inhibits either 50% of growth or 50% of the strains tested, depending on the study) in series [20] (read-out: amoxicillin MIC50) amounted to 2 µg/mL (≈ 5.47 µM). Besides, the MIC90 (in general, an inhibitory concentration at the 90% level, which refers to growth in some studies and to a panel of isolates in others) in series [20] (read-out: amoxicillin MIC90) was determined as 4 µg/mL (≈ 10.9 µM).

The values are drawn from US20050004093A1, “Beta-lactamase inhibitor prodrug” (Pfizer Inc, priority 2003, published 2005).
